Entries after “also recorded” stand apart in the source; their conditions may differ. Peptide text beside a SMILES is read from it.
Assays:
Assay type in all cases: in vivo, Mice (C57B16)
[1] = tested on: Lewis Lung Carcinoma (LLC); assay: Tumor response in mice bearing LLC tumor during and after treatment with small peptides (Example II); settings: for tumor volume day 21: average tumor volume on day 21, s.c. LLC, i.p. injection Mon/Wed/Fri; for tumor volume day 21 / mice showing a tumor response: 6 mice per group; for tumor control: mice with complete tumor control for 56 days / mice in group; for Response rate CR: number of mice with complete response; for Response rate CR / Response rate NC / Response rate PR / Response rate PD: of 6; for Response rate NC: number of mice with no change (stable disease); for Response rate PR: number of mice with partial remission; for Response rate PD: number of mice with progressive disease; for effect on tumor growth / tumor growth curves compared with thalidomide: result in words; for effect on tumor growth: i.p. peptide, LLC tumor; for mice showing a tumor response: response = maximally a growth of 25% within seven days; for tumor growth curves compared with thalidomide: FIG. 1
Procedure: Animals and tumor model: Mice (C57B16) are transplanted with the syngeneic Lewis Lung Carcinoma (LLC) subcutaneously.
Treatment modalities: mice are treated with small peptides or control substances beginning on the day of transplantation by i.p. injection. Mice are injected on Monday, Wednesday and Friday, until end of experiment. Experiment ends are based on: tumor size >20 mm, suffering of the animal, weight loss over 20%, ulcerations etc. Otherwise the experiment is terminated eight weeks after start.
Tumor diameter is measured in two directions by caliper measurements and tumor volume (V) is calculated using the formula V=0.4(A^2×B) (where B represents the largest diameter and A the diameter perpendicular to B). The classification of tumor response is: progressive disease (PD), increase of tumor volume (>50%) within seven days (between day 3 and day 10 after begin of treatment); stable disease, tumor volume equal to volume at day 3 in a range of −25% and +25%; partial remission (R), tumor volume −25% to −90%, and complete response CR, (no) measurable tumor at 56 days after start of treatment.
Tumor growth evaluation is terminated when a tumor diameter of 20 mm is reached.
Mice were treated with i.p. injections of peptides 24 hours after implantation of LLC tumor. In all mice receiving PBS tumor developed which reached on average a tumor volume of 1600 mm^3 in 21 days. Approximately tumor diameter was at that time point 16 mm. Thalidomide was used as a positive control.

[2] = tested on: Lewis Lung Carcinoma (LLC); assay: Escalating doses of peptide LQGV in Lewis Lung Carcinoma-bearing mice (Example III); settings: for PD: number of mice with progressive disease (outgrowth); for TR: number of mice with tumor response (growth delay till day 20); for RR: tumor response rate
Procedure: FIG. 3 Tumor volume of Lewis Lung Carcinoma-bearing C57B16 mice treated with escalating doses of peptide LQGV (SEQ ID NO:1). Doses of 1.7, 5, 17, 50 and 170 mg/kg were tested.
Animals and tumor model. Mice (C57B16) are transplanted with the syngeneic Lewis Lung Carcinoma (LLC) subcutaneously. Treatment is stared 24 hours after implantation. The number of animals is eight per group to increase the power of this study. As we are starting the treatment when no tumor is palpable the change of error is larger compared to a study with established tumors. Treatment modalities: mice are treated with small peptides or sham control beginning one day after transplantation by i.p. injection. Mice will be injected on Monday, Wednesday and Friday, until end of experiment. Experiment ends based on criteria as tumor size >20 mm, suffering of the animal, weight loss over 20%, ulcerations. Otherwise the experiment will be terminated eight weeks after start.
Tumor diameter is measured in two directions by caliper measurements and tumor volume (V) is calculated using the formula V=0.4(A2×B) (where B represents the largest diameter and A the diameter perpendicular to B). The classification of tumor response is: progressive disease (PD), increase of tumor volume (>25%) within seven days; no change (NC), tumor volume equal to volume at start of treatment in a range of −25% and +25%; partial remission (PR), decrease of tumor volume between −25% and −90%; complete remission (CR), tumor volume less than 10% of initial volume. Tumor growth evaluation is terminated when a tumor diameter of 20 mm is reached.
Tumor volumes were analyzed using non-parametric testing for multiple groups (Kruskal Wallis) and pair wise comparison of the different groups using Mann Whitney.
Tumor response was evaluated slightly differently from proposed. As we start shortly after tumor induction, shrinkage of the tumor compared to before treatment cannot be made. […] So during the experimental time-frame outgrowth (progressive disease, PD) and tumor response (TR, growth delay till day 20) was evaluated. In Table 3 response rates are depicted.

[3] = Toxicity during escalating dose experiment: animal weight, blood markers, leukocyte count (Example III)
Procedure: FIG. 5. During the escalating dose experiment toxicity of LQGV (SEQ ID NO:1) was evaluated by evaluation of blood markers for kidney and liver function and leukocyte count.
FIG. 6. During the escalating dose experiment toxicity of LQGV (SEQ ID NO:1) was evaluated by monitoring of animal weight.
Assessment of side-effects. Side-effects are monitored on daily basis. a) Weight of the animals is monitored daily. b) Behavior of the animals is observed. c) Animals are checked for possible side effects such as diarrhea.
During the experiment toxicity of the administered peptides was evaluated by monitoring of animal weight (FIG. 6) and by evaluation of blood markers for kidney and liver function and leukocyte count (FIG. 5). […] It is important to compare not only between the groups but also within the groups between individual mice.

[4] = escalating dose experiment, FIG. 5

For “Leu Ala Gly Val (LAGV; Chemically synthesized antitumor peptide LAGV) [4-mer peptide, derivative of LQGV]”, the “tumor volume day 21” value [1] was 1600 mm^3, the tumor control [1] was 2/6 and the “Response rate CR” value [1] was 1. The “Response rate NC” value [1] was 1, the “Response rate PR” value [1] was 1 and the “Response rate PD” value [1] was 3.

In the case of “Ala Gln Gly Val (AQGV; Chemically synthesized antitumor peptide AQGV) [4-mer peptide, derivative of LQGV]”, the “tumor volume day 21” value [1] is reported as 1030 mm^3, the tumor control [1] is reported as 2/6 and the “Response rate NC” value [1] is reported as 1. For the same compound, the “Response rate PR” value [1] was 2, the “Response rate PD” value [1] was 3 and the “effect on tumor growth” value [1] was “tumor growth delay”.

With LAG the “tumor volume day 21” value [1] was 1550 mm^3, the tumor control [1] was 2/6 and the “Response rate CR” value [1] was 1. The “Response rate PR” value [1] was 1 and the “Response rate PD” value [1] was 4.

With “VLPALP (Chemically synthesized antitumor peptide VLPALP) [6-mer peptide]” the “tumor volume day 21” value [1] was 880 mm^3, the tumor control [1] was 3/6 and the “Response rate CR” value [1] was 2. The “Response rate NC” value [1] was 2, the “Response rate PR” value [1] was 1 and the “Response rate PD” value [1] was 1. The “mice showing a tumor response” value [1] was “five out of six” and the “effect on tumor growth” value [1] was “tumor growth delay”.

For CC(C)C[C@H](N)C(=O)N[C@@H](CCC(N)=O)C(=O)NCC(=O)N[C@H](C(=O)O)C(C)C [LQGV, Leu Gln Gly Val] (H-LQGV-OH), the “tumor growth curves compared with thalidomide” value [1] was “comparable to Thalidomide; also recorded: comparable tumor growth curves”, the “tumor volume day 21” value [1] was 270 mm^3 and the tumor control [1] was 2/6. For the same compound, the “Response rate CR” value [1] was 2, the “Response rate NC” value [1] was 2 and the “Response rate PR” value [1] was 1. For the same compound, the “Response rate PD” value [1] was 1, the “mice showing a tumor response” value [1] was “five out of six” and the “effect on tumor growth” value [1] was “strong tumor growth delay”. It also gave a PD ([2]; 1.7 mg/kg i.p.) of 9, a TR ([2]; 1.7 mg/kg i.p.) of 2 and an RR ([2]; 1.7 mg/kg i.p.) of 18%. It also gave a PD ([2]; 5 mg/kg i.p.) of 4, a TR ([2]; 5 mg/kg i.p.) of 7 and an RR ([2]; 5 mg/kg i.p.) of 64%. It also gave a PD ([2]; 17 mg/kg i.p.) of 2, a TR ([2]; 17 mg/kg i.p.) of 9 and an RR ([2]; 17 mg/kg i.p.) of 82%. For the same compound, the PD ([2]; 50 mg/kg i.p.) was 4, the TR ([2]; 50 mg/kg i.p.) was 7 and the RR ([2]; 50 mg/kg i.p.) was 64%. For the same compound, the “effect on tumor growth” value ([2]; 50 mg/kg, result in words) was “strongly inhibited tumor growth”, the PD ([2]; 170 mg/kg i.p.) was 4 and the TR ([2]; 170 mg/kg i.p.) was 7. For the same compound, the RR ([2]; 170 mg/kg i.p.) was 64%, the “effect on tumor growth” value ([2]; dose of 5 mg/kg, result in words) was “a delay in tumor growth was observed” and the “delay in tumor growth relative to 5 mg/kg” value ([2]; higher dosages (above 5 mg/kg), result in words) was “more pronounced”. For the same compound, the “effect on animal weight” value ([3]; at all doses (1.7-170 mg/kg), FIG. 6) was “no effect on animal weight”, the “effect on leukocyte number” value [3, 4] was “no effect on leukocyte number” and the “effect on liver and kidney parameters (blood markers)” value [3, 4] was “did not affect the liver and kidney parameters”.

For LQG, the “tumor growth curves compared with thalidomide” value [1] was “comparable to Thalidomide; also recorded: comparable tumor growth curves”, the “tumor volume day 21” value [1] was 620 mm^3 and the tumor control [1] was 3/6. For the same compound, the “Response rate CR” value [1] was 2, the “Response rate NC” value [1] was 4 and the “mice showing a tumor response” value [1] was “all animals”. The “effect on tumor growth” value [1] was “tumor growth delay”.

In the case of O=C1CCC(N2C(=O)c3ccccc3C2=O)C(=O)N1 (stereo not drawn) [Thalidomide, reference compound], the “tumor volume day 21” value [1] is reported as 340 mm^3, the tumor control [1] is reported as 3/6 and the “Response rate CR” value [1] is reported as 2. For the same compound, the “Response rate NC” value [1] was 3, the “Response rate PR” value [1] was 1 and the “mice showing a tumor response” value [1] was “all animals”. For the same compound, the “effect on tumor growth” value ([2]; positive control group, result in words) was “only some tumor growth delay”.
